The target of this assay is T1, vanilloid receptor 1 (VR1/TRPV1 receptor) (Homo sapiens, UniProt Q8NER1).
T1 construct: expressed in transfected cells; host or cells: CHO K1
The assay can be described thus: Functional testing on the vanilloid receptor 1 (FLIPR Ca2+ influx assay, capsaicin). Format: cell-based, human being. Details: key to (f) (human being) Cap: effect in words (agonist / no effect): AG=agonist; NE=no effect. The following applies: for Ki: Cap=capsaicin (100 nM), Ki from IC50 by Cheng-Prusoff equation, read-out: (f) Ki (human being) [nM] Cap; for inhibition at 5 µM / (f) (human being) Cap: effect in words (agonist / no effect): Cap=capsaicin; for inhibition at 5 µM: read-out: inhibition (as a percentage), (f) (human being) Cap. On the procedure:
Furthermore, preference may be given to compounds according to the invention that cause a 50 percent displacement of capsaicin, which is present at a concentration of 100 nM, in a FLIPR assay with CHO K1 cells which were transfected with the human VR1 gene at a concentration of less than 2,000 nM, preferably less than 1,000 nM, particularly preferably less than 300 nM, most particularly preferably less than 100 nM, even more preferably less than 75 nM, additionally preferably less than 50 nM, most preferably less than 10 nM.
In the process, the Ca^2+ influx is quantified in the FLIPR assay with the aid of a Ca^2+-sensitive dye (type Fluo-4, Molecular Probes Europe BV, Leiden, the Netherlands) in a fluorescent imaging plate reader (FLIPR, Molecular Devices, Sunnyvale, USA), as described hereinafter.
Pharmacological Methods I. Functional Testing Carried Out on the Vanilloid Receptor 1 (VR1/TRPV1 Receptor) […]
The number of cells in the suspension is set to 3×10^5 per mL and 150 μL of this suspension are in each case introduced into a recess in the cell culture plates coated as described hereinbefore. In the incubator the plates are left for two to three days at 37° C., 5% by volume of CO2 and 95% relative humidity. Subsequently, the cells are loaded with 2 μM of Fluo-4 and 0.01% by volume of Pluronic F127 (Molecular Probes Europe BV, Leiden, the Netherlands) in HBSS buffer (Hank's buffered saline solution, Gibco Invitrogen GmbH, Karlsruhe, Germany) for 30 min at 37° C., washed 3 times with HBSS buffer and after further incubation for 15 minutes at room temperature used for Ca^2+ measurement in a FLIPR assay. The Ca^2+-dependent fluorescence is in this case measured before and after the addition of substances (λex=488 nm, λem=540 nm). Quantification is carried out by measuring the highest fluorescence intensity (FC, fluorescence counts) over time.
The FLIPR protocol consists of 2 substance additions. First the compounds to be tested (10 μM) are pipetted onto the cells and the Ca^2+ influx is compared with the control (capsaicin 10 μM). This provides the result in % activation based on the Ca^2+ signal after the addition of 10 μM of capsaicin (CP). After 5 minutes' incubation, 100 nM of capsaicin are applied and the Ca^2+ influx is also determined.
Desensitising agonists and antagonists lead to suppression of the Ca^2+ influx. The % inhibition is calculated compared to the maximum achievable inhibition with 10 μM of capsazepine. Triple analyses (n=3) are carried out and repeated in at least 3 independent experiments (N=4). Starting from the percentage displacement caused by different concentrations of the compounds to be tested of general formula I, IC50 inhibitory concentrations which cause a 50-percent displacement of capsaicin were calculated. Ki values for the test substances were obtained by conversion by means of the Cheng-Prusoff equation (Cheng, Prusoff; Biochem. Pharmacol. 22, 3099-3108, 1973).
The affinity of the compounds of to the invention for the vanilloid receptor 1 (VR1/TRPV1 receptor) was determined as described hereinbefore (pharmacological method I). The compounds of the invention display outstanding affinity to the VR1/TRPV1 receptor (Table 2). In Table 2 the abbreviations below have the following meanings: • Cap=capsaicin • AG=agonist • NE=no effect
The value after the “@” symbol indicates the concentration at which the inhibition (as a percentage) was respectively determined.

A word on the Ki: it is the equilibrium dissociation constant of an inhibitor or competing ligand from its target. By inhibition is commonly meant the share of the control response that was lost under treatment.

T1 sequence (Q8NER1 whole entry): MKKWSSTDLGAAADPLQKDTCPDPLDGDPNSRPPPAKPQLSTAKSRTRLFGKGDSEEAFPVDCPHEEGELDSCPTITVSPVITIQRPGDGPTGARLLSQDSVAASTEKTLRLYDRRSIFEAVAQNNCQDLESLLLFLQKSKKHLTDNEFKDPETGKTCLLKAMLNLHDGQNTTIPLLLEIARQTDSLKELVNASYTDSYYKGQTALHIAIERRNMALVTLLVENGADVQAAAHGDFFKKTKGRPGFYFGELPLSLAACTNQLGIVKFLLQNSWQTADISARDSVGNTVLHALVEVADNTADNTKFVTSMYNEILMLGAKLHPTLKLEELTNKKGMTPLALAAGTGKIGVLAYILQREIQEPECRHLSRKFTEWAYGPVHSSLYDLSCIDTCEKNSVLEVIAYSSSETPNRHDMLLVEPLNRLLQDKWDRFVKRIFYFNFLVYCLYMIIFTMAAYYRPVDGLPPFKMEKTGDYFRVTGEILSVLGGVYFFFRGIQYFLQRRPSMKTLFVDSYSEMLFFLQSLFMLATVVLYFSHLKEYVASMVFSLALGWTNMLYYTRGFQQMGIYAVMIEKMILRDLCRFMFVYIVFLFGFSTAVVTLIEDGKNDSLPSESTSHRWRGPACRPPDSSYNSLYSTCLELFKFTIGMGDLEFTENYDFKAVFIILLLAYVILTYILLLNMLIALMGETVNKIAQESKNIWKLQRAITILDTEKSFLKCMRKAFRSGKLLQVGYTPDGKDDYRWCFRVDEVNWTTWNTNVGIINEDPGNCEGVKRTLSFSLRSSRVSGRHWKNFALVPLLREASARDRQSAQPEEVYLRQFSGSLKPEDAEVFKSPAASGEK

“1-(6,7-Dihydro-5H-cyclopenta[b]pyridin-3-yl)-3-((2-(4-methylpiperidin-1-yl)-6-(trifluoromethyl)pyridin-3-yl)methyl)urea [Example 1]”: the Ki was 9 nM.

As to `CC1CCN(c2nc(C(F)(F)F)ccc2CNC(=O)Nc2cnc3[nH]ncc3c2)CC1` [Example 5, 1-((2-(4-methylpiperidin-1-yl)-6-(trifluoromethyl)pyridin-3-yl)methyl)-3-(1H-pyrazolo[3,4-b]pyridin-5-yl)urea], the Ki stood at 21 nM. Consider `CC1CCN(c2nc(C(F)(F)F)ccc2CNC(=O)C(C)c2ccnc3[nH]ncc23)CC1` (stereo not shown) [Example 8, N-((2-(4-Methylpiperidin-1-yl)-6-(trifluoromethyl)pyridin-3-yl)methyl)-2-(1H-pyrazolo[3,4-b]pyridin-4-yl)propanamide], for which the inhibition constant Ki amounted to 2 nM. With `CC1CCN(c2nc(C(F)(F)F)ccc2CNC(=O)Nc2ccnc3[nH]ncc23)CC1` [Example 9, 1-((2-(4-Methylpiperidin-1-yl)-6-(trifluoromethyl)pyridin-3-yl)methyl)-3-(1H-pyrazolo[3,4-b]pyridin-4-yl)urea], the inhibition at 5 µM turned out to be 22%.

For `O=C(NCc1ccc(C(F)(F)F)nc1SC1CCCCC1)Nc1ccc2ccccc2n1` [Example 11, 1-((2-(Cyclohexylthio)-6-(trifluoromethyl)pyridin-3-yl)methyl)-3-(quinolin-2-yl)urea], the inhibition at 5 µM was 19%. For `CC1CCN(c2nc(C(F)(F)F)ccc2CNC(=O)Nc2cnc3ccccc3c2)CC1` [Example 12, 1-((2-(4-Methylpiperidin-1-yl)-6-(trifluoromethyl)pyridin-3-yl)methyl)-3-(quinolin-3-yl)urea], the Ki came to 9 nM. Same read-out and setting: the value for `CC1CCN(c2nc(C(F)(F)F)ccc2CNC(=O)C(C)c2cnc3ccccc3c2)CC1` (stereo not shown) [Example 14, N-((2-(4-Methylpiperidin-1-yl)-6-(trifluoromethyl)pyridin-3-yl)methyl)-2-(quinolin-3-yl)propanamide] was 44 nM; that for `CC(C(=O)NCc1ccc(C(F)(F)F)nc1SC1CCCCC1)c1cnc2ccccc2c1` (stereo not shown) [Example 15, N-((2-(Cyclohexylthio)-6-(trifluoromethyl)pyridin-3-yl)methyl)-2-(quinolin-3-yl)propanamide] was 50 nM.

Turning to `CC1CCN(c2nc(C(F)(F)F)ccc2CNC(=O)Nc2ccnc3ccccc23)CC1` [Example 17, 1-((2-(4-Methylpiperidin-1-yl)-6-(trifluoromethyl)pyridin-3-yl)methyl)-3-(quinolin-4-yl)urea], the “(f) (human being) Cap: effect in words (agonist / no effect)” value is given as “AG”. Take `CC1CCN(c2nc(C(F)(F)F)ccc2CNC(=O)Nc2cncc3ccccc23)CC1` [Example 18, 1-(Isoquinolin-4-yl)-3-((2-(4-methylpiperidin-1-yl)-6-(trifluoromethyl)pyridin-3-yl)methyl)urea]: the Ki came to 2 nM. On the same count and under the same terms, to `O=C(NCc1ccc(C(F)(F)F)nc1SC1CCCCC1)Nc1cncc2ccccc12` [Example 19, 1-((2-(Cyclohexylthio)-6-(trifluoromethyl)pyridin-3-yl)methyl)-3-(isoquinolin-4-yl)urea] belongs 4 nM. `CC1CCN(c2nc(C(F)(F)F)ccc2CNC(=O)Nc2nccc3ccccc23)CC1` [Example 20, 1-(Isoquinolin-1-yl)-3-((2-(4-methylpiperidin-1-yl)-6-(trifluoromethyl)pyridin-3-yl)methyl)urea]: the “(f) (human being) Cap: effect in words (agonist / no effect)” value is on record as “NE”. On to `CC1CCN(c2nc(C(F)(F)F)ccc2CNC(=O)Nc2cc3ccccc3cn2)CC1` [Example 21, 1-(Isoquinolin-3-yl)-3-((2-(4-methylpiperidin-1-yl)-6-(trifluoromethyl)pyridin-3-yl)methyl)urea], for which the inhibition at 5 µM was 39%. As for `CC1CCN(c2nc(C(F)(F)F)ccc2CNC(=O)Nc2ccc3cc[nH]c3c2)CC1` [Example 22, 1-(1H-Indol-6-yl)-3-((2-(4-methylpiperidin-1-yl)-6-(trifluoromethyl)pyridin-3-yl)methyl)urea], the Ki is 24 nM. Regarding `CC1CCN(c2nc(C(F)(F)F)ccc2CNC(=O)Nc2ccc3[nH]ccc3c2)CC1` [Example 23, 1-(1H-Indol-5-yl)-3-((2-(4-methylpiperidin-1-yl)-6-(trifluoromethyl)pyridin-3-yl)methyl)urea], the inhibition constant (Ki) is 13 nM. Still for that read-out and setting: to `Cc1cc2cc(NC(=O)NCc3ccc(C(F)(F)F)nc3N3CCC(C)CC3)ccc2[nH]1` [Example 24, 1-(2-Methyl-1H-indol-5-yl)-3-((2-(4-methylpiperidin-1-yl)-6-(trifluoromethyl)pyridin-3-yl)methyl)urea] belongs 26 nM.

On to `CC1CCN(c2nc(C(F)(F)F)ccc2CNC(=O)Nc2ccc3ncn(C)c3c2)CC1` [Example 26, 1-(1-Methyl-1H-benzo[d]imidazol-6-yl)-3-((2-(4-methylpiperidin-1-yl)-6-(trifluoromethyl)pyridin-3-yl)methyl)urea], for which the “(f) (human being) Cap: effect in words (agonist / no effect)” value is listed as “AG”. `CC1CCN(c2nc(C(F)(F)F)ccc2CNC(=O)Nc2ccc3cnn(C)c3c2)CC1` [Example 27, 1-(1-Methyl-1H-indazol-6-yl)-3-((2-(4-methylpiperidin-1-yl)-6-(trifluoromethyl)pyridin-3-yl)methyl)urea]: the Ki amounted to 7 nM. On to `CC1CCN(c2nc(C(F)(F)F)ccc2CNC(=O)Nc2ccc3scnc3c2)CC1` [Example 29, 1-(Benzo[d]thiazol-5-yl)-3-((2-(4-methylpiperidin-1-yl)-6-(trifluoromethyl)pyridin-3-yl)methyl)urea], for which the Ki stood at 5 nM. The same measure, in the same setting: the value for `Cc1nc2cc(NC(=O)NCc3ccc(C(F)(F)F)nc3N3CCC(C)CC3)ccc2s1` [Example 30, 1-(2-Methylbenzo[d]thiazol-5-yl)-3-((2-(4-methylpiperidin-1-yl)-6-(trifluoromethyl)pyridin-3-yl)methyl)urea] was 22 nM. For the compound `CC(=O)Nc1nc2cc(NC(=O)NCc3ccc(C(F)(F)F)nc3N3CCC(C)CC3)ccc2s1` [Example 31, N-(5-(3-((2-(4-methylpiperidin-1-yl)-6-(trifluoromethyl)pyridin-3-yl)methyl)ureido)benzo[d]thiazol-2-yl)acetamide], the “(f) (human being) Cap: effect in words (agonist / no effect)” value was “AG”. `CC1CCN(c2nc(C(F)(F)F)ccc2CNC(=O)Nc2ccc3ncsc3c2)CC1` [Example 32, 1-(Benzo[d]thiazol-6-yl)-3-((2-(4-methylpiperidin-1-yl)-6-(trifluoromethyl)pyridin-3-yl)methyl)urea]: the Ki worked out at 4 nM.

For the compound `Cc1nc2ccc(NC(=O)NCc3ccc(C(F)(F)F)nc3N3CCC(C)CC3)cc2s1` [Example 33, 1-(2-Methylbenzo[d]thiazol-6-yl)-3-((2-(4-methylpiperidin-1-yl)-6-(trifluoromethyl)pyridin-3-yl)methyl)urea], the Ki amounted to 4 nM. Still for that read-out and setting: the value for `CC1CCN(c2nc(C(F)(F)F)ccc2CNC(=O)Nc2ccc3nc(N)sc3c2)CC1` [Example 34, 1-(2-Aminobenzo[d]thiazol-6-yl)-3-((2-(4-methylpiperidin-1-yl)-6-(trifluoromethyl)pyridin-3-yl)methyl)urea] was 50 nM. As to `CC(=O)Nc1nc2ccc(NC(=O)NCc3ccc(C(F)(F)F)nc3N3CCC(C)CC3)cc2s1` [Example 35, N-(6-(3-((2-(4-Methylpiperidin-1-yl)-6-(trifluoromethyl)pyridin-3-yl)methyl)ureido)benzo[d]thiazol-2-yl)acetamide], the inhibition at 5 µM amounted to 47%.

For the origin of these results see patent US9029378B2, “Substituted bicyclic aromatic carboxamide and urea compounds as vanilloid receptor ligands” (Gruenenthal GmbH, priority 2011, dated 2015).
